Values of other authors as cited in paper PMC5201331, “Subchronic Toxicities of HZ1006, a Hydroxamate-Based Histone Deacetylase Inhibitor, in Beagle Dogs and Sprague-Dawley Rats” (International Journal of Environmental Research and Public …, 2016).

Assays:
patients = test system: patients; parameters: method as in PMID 12440223; conditions: day-1 and -5 schedule every 21 days; cited from earlier work
dogs = test system: dogs; parameters: method as in PMID 19903873; conditions: 26 weeks orally dosed daily with 4-week recovery; cited from earlier work
rats = test system: rats; parameters: method as in PMID 19903873; conditions: rats, 20, 50 or 150 mg/kg/day, 26 weeks orally dosed daily with 4-week recovery; cited from earlier work

## C/C=C1\NC(=O)[C@H]2CSSCC/C=C/[C@H](CC(=O)N[C@H](C(C)C)C(=O)N2)OC(=O)[C@H](C(C)C)NC1=O [depsipeptide]
patients
  MTD: 17.8 mg/m^2

## O=C(CCCCCCC(=O)Nc1ccccc1)NO [vorinostat, suberoylanilide hydroxamic acid]
dogs
  no-observed adverse effect level: 60 mg/kg/day
rats
  no-observed adverse effect level: not established
